Experimental data taken from ChEMBL document CHEMBL4138123, “Design, synthesis and biological evaluation of novel pyrazolochalcones as potential modulators of PI3K/Akt/mTOR pathway and inducers of apoptosis in breast cancer cells” (Eur J Med Chem, 2017).

Experiments:
Assay type in all cases: functional
A498 = experiment: Cytotoxicity against human A498 cells assessed as cell growth at 100 uM after 48 hrs by sulforhodamine B assay relative to control; settings: A498, 48 h, read-out: Activity
KM12 [1] = experiment: Cytotoxicity against human KM12 cells assessed as cell growth at 10 uM after 48 hrs by sulforhodamine B assay relative to control; settings: KM12, 48 h, read-out: Activity
NCI-H226 [2] = experiment: Cytotoxicity against human NCI-H226 cells assessed as cell growth at 0.01 uM after 48 hrs by sulforhodamine B assay relative to control; settings: NCI-H226, 48 h, read-out: Activity
NCI/ADR-RES = experiment: Cytotoxicity against human NCI/ADR-RES cells assessed as growth inhibition after 48 hrs by sulforhodamine B assay
SNB-19 = experiment: Cytotoxicity against human SNB19 cells assessed as cell growth at 0.01 uM after 48 hrs by sulforhodamine B assay relative to control; settings: SNB-19, 48 h, read-out: Activity
RXF 393 [3] = experiment: Cytotoxicity against human RXF393 cells assessed as cell growth at 1 uM after 48 hrs by sulforhodamine B assay relative to control; settings: RXF 393, 48 h, read-out: Activity
UACC-257 [4] = experiment: Cytotoxicity against human UACC257 cells assessed as cell growth at 0.1 uM after 48 hrs by sulforhodamine B assay relative to control; settings: UACC-257, 48 h, read-out: Activity
Hs-578T = experiment: Cytotoxicity against human Hs 578T cells assessed as growth inhibition after 48 hrs by sulforhodamine B assay
NCI-H226 [5] = experiment: Cytotoxicity against human NCI-H226 cells assessed as growth inhibition after 48 hrs by sulforhodamine B assay; settings: NCI-H226, 48 h
HT-29 [6] = experiment: Cytotoxicity against human HT-29 cells assessed as cell growth at 10 uM after 48 hrs by sulforhodamine B assay relative to control; settings: HT-29, 48 h, read-out: Activity
OVCAR-8 = experiment: Cytotoxicity against human OVCAR8 cells assessed as cell growth at 0.1 uM after 48 hrs by sulforhodamine B assay relative to control; settings: OVCAR-8, 48 h, read-out: Activity
CCRF-CEM [7] = experiment: Cytotoxicity against human CCRF-CEM cells assessed as cell growth at 0.1 uM after 48 hrs by sulforhodamine B assay relative to control; settings: read-out: Activity
UACC-257 [8] = experiment: Cytotoxicity against human UACC257 cells assessed as cell growth at 1 uM after 48 hrs by sulforhodamine B assay relative to control; settings: UACC-257, 48 h, read-out: Activity
SK-OV-3 [9] = experiment: Cytotoxicity against human SKOV3 cells assessed as cell growth at 0.1 uM after 48 hrs by sulforhodamine B assay relative to control; settings: SK-OV-3, 48 h, read-out: Activity
RXF 393 [10] = experiment: Cytotoxicity against human RXF393 cells assessed as cell growth at 0.01 uM after 48 hrs by sulforhodamine B assay relative to control; settings: RXF 393, 48 h, read-out: Activity
KM12 [11] = experiment: Cytotoxicity against human KM12 cells assessed as cell growth at 1 uM after 48 hrs by sulforhodamine B assay relative to control; settings: KM12, 48 h, read-out: Activity
KM12 [12] = experiment: Cytotoxicity against human KM12 cells assessed as growth inhibition after 48 hrs by sulforhodamine B assay; settings: KM12, 48 h
MDA-MB-435 = experiment: Cytotoxicity against human MDA-MB-435 cells assessed as cell growth at 100 uM after 48 hrs by sulforhodamine B assay relative to control; settings: MDA-MB-435, 48 h, read-out: Activity
NCI-H522 = experiment: Cytotoxicity against human NCI-H522 cells assessed as cell growth at 10 uM after 48 hrs by sulforhodamine B assay relative to control; settings: NCI-H522, 48 h, read-out: Activity
HT-29 [13] = experiment: Cytotoxicity against human HT-29 cells assessed as cell growth at 0.01 uM after 48 hrs by sulforhodamine B assay relative to control; settings: HT-29, 48 h, read-out: Activity
RPMI-8226 = experiment: Cytotoxicity against human RPMI8226 cells assessed as cell growth at 10 uM after 48 hrs by sulforhodamine B assay relative to control; settings: RPMI-8226, 48 h, read-out: Activity
K562 = experiment: Cytotoxicity against human K562 cells assessed as cell growth at 0.1 uM after 48 hrs by sulforhodamine B assay relative to control; settings: K562, 48 h, read-out: Activity
U-251 = experiment: Cytotoxicity against human U251 cells assessed as growth inhibition after 48 hrs by sulforhodamine B assay; settings: U-251, 48 h
BT-549 = experiment: Cytotoxicity against human BT549 cells assessed as growth inhibition after 48 hrs by sulforhodamine B assay; settings: BT-549, 48 h
MDA-MB-231 = experiment: Cytotoxicity against human MDA-MB-231 cells assessed as cell growth at 0.1 uM after 48 hrs by sulforhodamine B assay relative to control; settings: MDA-MB-231, 48 h, read-out: Activity
PC-3 = experiment: Cytotoxicity against human PC3 cells assessed as growth inhibition after 48 hrs by sulforhodamine B assay; settings: PC-3, 48 h
786-0 = experiment: Cytotoxicity against human 786-0 cells assessed as cell growth at 1 uM after 48 hrs by sulforhodamine B assay relative to control; settings: 786-0, 48 h, read-out: Activity
HT-29 [14] = experiment: Cytotoxicity against human HT-29 cells assessed as growth inhibition after 48 hrs by sulforhodamine B assay; settings: HT-29, 48 h
SK-OV-3 [15] = experiment: Cytotoxicity against human SKOV3 cells assessed as cell growth at 10 uM after 48 hrs by sulforhodamine B assay relative to control; settings: SK-OV-3, 48 h, read-out: Activity
RXF 393 [16] = experiment: Cytotoxicity against human RXF393 cells assessed as cell growth at 100 uM after 48 hrs by sulforhodamine B assay relative to control; settings: RXF 393, 48 h, read-out: Activity
UACC-62 = experiment: Cytotoxicity against human UACC62 cells assessed as cell growth at 1 uM after 48 hrs by sulforhodamine B assay relative to control; settings: UACC-62, 48 h, read-out: Activity
OVCAR-5 = experiment: Cytotoxicity against human OVCAR5 cells assessed as growth inhibition after 48 hrs by sulforhodamine B assay; settings: OVCAR-5, 48 h
CCRF-CEM [17] = experiment: Cytotoxicity against human CCRF-CEM cells assessed as cell growth at 0.01 uM after 48 hrs by sulforhodamine B assay relative to control; settings: read-out: Activity
HCT-116 = experiment: Cytotoxicity against human HCT116 cells assessed as cell growth at 10 uM after 48 hrs by sulforhodamine B assay relative to control; settings: HCT-116, 48 h, read-out: Activity
HT-29 [18] = experiment: Cytotoxicity against human HT-29 cells assessed as cell growth at 1 uM after 48 hrs by sulforhodamine B assay relative to control; settings: HT-29, 48 h, read-out: Activity
SF-268 = experiment: Cytotoxicity against human SF268 cells assessed as growth inhibition after 48 hrs by sulforhodamine B assay; settings: SF-268, 48 h; for CC50: read-out: LC50 (the source's name)

## COc1ccc(-c2cc(/C=C/C(=O)c3cc(OC)c(OC)c(OC)c3)[nH]n2)cc1OC
A498
  growth at 100 µM: -91%
KM12 [1]
  growth at 10 µM: -81%
NCI-H226 [2]
  growth at 0.01 µM: 93%
NCI/ADR-RES
  GI50: 2.69 µM
  LC50: > 100 µM
  TGI: 37 µM
SNB-19
  growth at 0.01 µM: 91%
RXF 393 [3]
  growth at 1 µM: 80%
UACC-257 [4]
  growth at 0.1 µM: 97%
Hs-578T
  GI50: 2.91 µM
  LC50: > 100 µM
  TGI: 22.1 µM
NCI-H226 [5]
  GI50: 1.93 µM
  LC50 (concentration killing 50% of cells): > 100 µM
  TGI: 7.91 µM
HT-29 [6]
  growth at 10 µM: -87%
OVCAR-8
  growth at 0.1 µM: 100%
CCRF-CEM [7]
  growth at 0.1 µM: 91%
UACC-257 [8]
  growth at 1 µM: 89%
SK-OV-3 [9]
  growth at 0.1 µM: 87%
RXF 393 [10]
  growth at 0.01 µM: 103%
KM12 [11]
  growth at 1 µM: 45%
KM12 [12]
  GI50: 0.78 µM
  LC50: 5.68 µM
  TGI: 2.27 µM
MDA-MB-435
  growth at 100 µM: -78%
NCI-H522
  growth at 10 µM: -94%
HT-29 [13]
  growth at 0.01 µM: 101%
RPMI-8226
  growth at 10 µM: -38%
K562
  growth at 0.1 µM: 94%
U-251
  GI50: 1.24 µM
  LC50: 5.13 µM
  TGI: 2.53 µM
BT-549
  GI50: 1.36 µM
  LC50 (concentration killing 50% of cells): 6.32 µM
  TGI: 2.93 µM
MDA-MB-231
  growth at 0.1 µM: 93%
PC-3
  GI50: 1.99 µM
  LC50: 48.2 µM
  TGI: 10.3 µM
786-0
  growth at 1 µM: 81%
HT-29 [14]
  GI50: 1.3 µM
  LC50: 5.75 µM
  TGI: 2.73 µM
SK-OV-3 [15]
  growth at 10 µM: 37%
RXF 393 [16]
  growth at 100 µM: -83%
UACC-62
  growth at 1 µM: 88%
OVCAR-5
  GI50: 1.76 µM
  LC50: 13.7 µM
  TGI: 4.31 µM
CCRF-CEM [17]
  growth at 0.01 µM: 97%
HCT-116
  growth at 10 µM: -81%
HT-29 [18]
  growth at 1 µM: 68%
SF-268
  GI50: 1.68 µM
  TGI: 3.9 µM
  CC50: 9.03 µM

## COc1ccc(-c2cc(/C=C/C(=O)c3ccc(OC)c(OC)c3)[nH]n2)cc1
A498
  growth at 100 µM: -90%
KM12 [1]
  growth at 10 µM: -72%
NCI-H226 [2]
  growth at 0.01 µM: 83%
NCI/ADR-RES
  GI50: 3.44 µM
  LC50: > 100 µM
  TGI: 24.8 µM
SNB-19
  growth at 0.01 µM: 96%
RXF 393 [3]
  growth at 1 µM: 72%
UACC-257 [4]
  growth at 0.1 µM: 86%
Hs-578T
  GI50: 3.38 µM
  LC50: > 100 µM
  TGI: 29 µM
NCI-H226 [5]
  GI50: 1.54 µM
  TGI: 3.51 µM
HT-29 [6]
  growth at 10 µM: -66%
OVCAR-8
  growth at 0.1 µM: 89%
CCRF-CEM [7]
  growth at 0.1 µM: 97%
UACC-257 [8]
  growth at 1 µM: 87%
SK-OV-3 [9]
  growth at 0.1 µM: 109%
RXF 393 [10]
  growth at 0.01 µM: 82%
KM12 [11]
  growth at 1 µM: 70%
KM12 [12]
  GI50: 1.38 µM
  LC50: 7.01 µM
  TGI: 3.11 µM
MDA-MB-435
  growth at 100 µM: -91%
NCI-H522
  growth at 10 µM: -68%
HT-29 [13]
  growth at 0.01 µM: 101%
RPMI-8226
  growth at 10 µM: -56%
K562
  growth at 0.1 µM: 108%
U-251
  GI50: 1.11 µM
  LC50: 4.97 µM
  TGI: 2.34 µM
BT-549
  GI50: 1.68 µM
  LC50 (concentration killing 50% of cells): 7.4 µM
  TGI: 3.53 µM
MDA-MB-231
  growth at 0.1 µM: 91%
PC-3
  GI50: 1.45 µM
  LC50: 8.3 µM
  TGI: 3.46 µM
786-0
  growth at 1 µM: 86%
HT-29 [14]
  GI50: 1.55 µM
  LC50: 7.68 µM
  TGI: 3.45 µM
SK-OV-3 [15]
  growth at 10 µM: 29%
RXF 393 [16]
  growth at 100 µM: -92%
UACC-62
  growth at 1 µM: 85%
OVCAR-5
  GI50: 1.65 µM
  LC50: 10.6 µM
  TGI: 4.09 µM
CCRF-CEM [17]
  growth at 0.01 µM: 102%
HCT-116
  growth at 10 µM: -78%
HT-29 [18]
  growth at 1 µM: 77%
SF-268
  GI50: 1.94 µM
  TGI: 4.82 µM
  CC50: 27.3 µM
